Measured values taken from US12528805B2, “Solid forms of emetine” (Acer Therapeutics, Inc., priority 2020, dated 2026).
Counter-ions that a name gives are not always drawn.

Assay: Solid form stability on storage (XRPD re-analysis)
Type: physicochemical
Settings: stored at 40° C./75% RH for 22 h
Method: The solids were dried under vacuum at ambient temperature (about 23° C.) for 17 h. The solids on the XRPD plate were stored at 40° C./75% RH for 22 h then re-analyzed. Amorphous and a mixture of Compound I dihydrochloride Form 2 and Form 6 were obtained (Table 7).
The solids were isolated by filtration after a total of 27.5 h at 5° C. and washed with 0.6 mL of cold acetone or 3×0.6 mL of cold heptane. The solids were dried under vacuum at ambient temperature (about 23° C.) for 17 h. The solids on the XRPD plate were stored at 40° C./75% RH for 22 h then re-analyzed by XRPD. Results, which are summarized in Table 8, show mixtures of Compound I dihydrochloride Forms 5 and 6, 5, 2 and 1, and 2 were obtained.
1.0 mL of water was added to approximately 300 mg of Compound I dihydrochloride Form 1. The resulting mixture was magnetically stirred at 50° C. over about 15 min, then stirred at 50° C. for 0.25 h. The solution was polish filtered (0.45 μm PTFE filter) into a 2 mL push-cap vial and then stirred at 50° C. for 0.25 h, prior to cooling to 5° C. at 0.1° C./min. After 62 h at 5° C., the experiment was sub-sampled and the solid was analyzed by XRPD. The material on the XRPD plate was dried under vacuum at 35° C. under a stream of wet nitrogen (20-38% RH) for about 9 h and then re-analyzed by XRPD. The material on the XRPD plate was stored at 25° C./60% RH for 22 h and then re-analyzed by XRPD. After a total of 87 h at 5° C., solids were isolated by centrifugation (0.22 μm nylon filter) and analyzed by XRPD. The solids were air-dried at ambient temperature (about 22° C.) for 24 h.
Small-scale crystallization Experiment 7 was sub-sampled prior to ASA and after ASA was complete, with solids isolated by centrifugation (0.22 μm nylon filter) and analyzed by XRPD.
Approximately 10 g of Compound I dihydrochloride Form 1 was dissolved in 67 mL of ethanol:water 99:1 v/v at about 60° C. (initial concentration: 150 mg/mL). Polish filtration was carried out (0.2 μm PTFE filter). The solution was transferred to a 250 mL vessel at 60° C. and stirred at 50° C. (solution temperature) and 300 rpm for about 5 min. The solution was seeded with about 100 mg (1 wt. %) of Compound I dihydrochloride Form 2, isolated from small-scale crystallization Experiments 12 and 13, from example 4 above. The seed dissolved rapidly. Anti-solvent addition of 10 mL of heptane (1 volume) was carried out at 2 vol/h (Heptane content of 13%). The solution was re-seeded with a further 100 mg (1 wt. %) of Form 2, isolated from small-scale crystallization Experiment 12. The seed persisted and a slurry formed. The slurry was stirred at 50° C. for 1 h and then anti-solvent addition of 131 mL of heptane at 1.5 vol/h was carried out, to reach 60% heptane. […] An additional 2 volumes of ethanol:water 99:1 v/v was added at the beginning of the ASA to mobilize the slurry. Once ASA was complete, the slurry was cooled to 5° C. at 0.1° C./min. The experiment was sub-sampled after about 2 h at 5° C. The slurry was thick but mixing. After 3.5 h at 5° C., an additional 3.6 mL of water was added to increase the water content to 2% (ethanol:water:heptane ratio of 39:2:59 v/v/v). The experiment was sub-sampled again after 2 h at 5° C. with additional water. After a total of 10 h at 5° C., solids were isolated by filtration and washed with 2 volumes of cold (5° C.) ethanol:heptane 40:60 v/v. The solids were filtered and dried under vacuum at ambient temperature (about 21° C.) for 14.5 h, then analyzed by XRPD.

SMILES: CC[C@H]1CN2CCc3cc(OC)c(OC)cc3[C@@H]2C[C@@H]1C[C@H]1NCCc2cc(OC)c(OC)cc21 [Amorphous Compound I dihydrochloride]
- Solid form by XRPD after storage: amorphous Compound I dihydrochloride was obtained
